Measured values published in BindingDB's records for patent US11547697 (Millennium Pharmaceuticals, 2023).

Legend:
Experiment in all cases: Inhibition Assay of PI3K
[1] = biological target: Phosphatidylinositol 4,5-bisphosphate 3-kinase catalytic subunit alpha isoform (Homo sapiens, UniProt P42336)
[2] = biological target: Phosphatidylinositol 4,5-bisphosphate 3-kinase catalytic subunit beta isoform (Homo sapiens, UniProt P42338)
[3] = biological target: T1, Phosphatidylinositol 4,5-bisphosphate 3-kinase catalytic subunit delta isoform (Homo sapiens, UniProt O00329)
T1 sequence (O00329 whole entry): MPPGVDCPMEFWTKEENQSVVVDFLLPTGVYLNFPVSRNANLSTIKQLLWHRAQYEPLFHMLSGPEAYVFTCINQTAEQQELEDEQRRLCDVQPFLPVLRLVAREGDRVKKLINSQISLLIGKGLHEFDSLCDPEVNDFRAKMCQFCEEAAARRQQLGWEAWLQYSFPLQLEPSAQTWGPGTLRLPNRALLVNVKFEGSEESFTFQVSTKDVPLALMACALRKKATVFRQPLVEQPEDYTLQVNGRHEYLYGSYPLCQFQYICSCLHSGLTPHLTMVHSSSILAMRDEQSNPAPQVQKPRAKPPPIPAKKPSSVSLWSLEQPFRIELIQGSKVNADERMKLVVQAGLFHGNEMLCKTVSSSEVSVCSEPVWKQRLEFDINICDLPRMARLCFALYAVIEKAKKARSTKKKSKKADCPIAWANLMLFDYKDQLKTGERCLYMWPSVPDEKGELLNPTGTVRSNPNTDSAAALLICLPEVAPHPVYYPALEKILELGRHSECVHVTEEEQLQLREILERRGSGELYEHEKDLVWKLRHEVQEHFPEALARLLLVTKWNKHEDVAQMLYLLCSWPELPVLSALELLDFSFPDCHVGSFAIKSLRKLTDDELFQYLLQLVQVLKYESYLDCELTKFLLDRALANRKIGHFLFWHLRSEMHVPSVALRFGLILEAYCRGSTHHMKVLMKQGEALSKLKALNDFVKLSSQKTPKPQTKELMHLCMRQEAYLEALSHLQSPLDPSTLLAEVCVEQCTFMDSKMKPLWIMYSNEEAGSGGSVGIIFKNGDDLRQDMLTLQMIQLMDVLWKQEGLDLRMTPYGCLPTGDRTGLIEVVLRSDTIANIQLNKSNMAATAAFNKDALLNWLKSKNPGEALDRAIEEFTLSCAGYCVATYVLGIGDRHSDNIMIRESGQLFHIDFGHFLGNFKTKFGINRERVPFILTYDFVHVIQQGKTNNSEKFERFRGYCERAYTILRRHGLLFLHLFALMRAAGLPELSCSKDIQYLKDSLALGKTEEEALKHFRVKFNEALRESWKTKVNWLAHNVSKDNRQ

[4] = biological target: Phosphatidylinositol 4,5-bisphosphate 3-kinase catalytic subunit gamma isoform (Homo sapiens, UniProt P48736)

Measured: IC50

Chain of Phosphatidylinositol 4,5-bisphosphate 3-kinase catalytic subunit gamma isoform (P48736 whole entry, canonical isoform): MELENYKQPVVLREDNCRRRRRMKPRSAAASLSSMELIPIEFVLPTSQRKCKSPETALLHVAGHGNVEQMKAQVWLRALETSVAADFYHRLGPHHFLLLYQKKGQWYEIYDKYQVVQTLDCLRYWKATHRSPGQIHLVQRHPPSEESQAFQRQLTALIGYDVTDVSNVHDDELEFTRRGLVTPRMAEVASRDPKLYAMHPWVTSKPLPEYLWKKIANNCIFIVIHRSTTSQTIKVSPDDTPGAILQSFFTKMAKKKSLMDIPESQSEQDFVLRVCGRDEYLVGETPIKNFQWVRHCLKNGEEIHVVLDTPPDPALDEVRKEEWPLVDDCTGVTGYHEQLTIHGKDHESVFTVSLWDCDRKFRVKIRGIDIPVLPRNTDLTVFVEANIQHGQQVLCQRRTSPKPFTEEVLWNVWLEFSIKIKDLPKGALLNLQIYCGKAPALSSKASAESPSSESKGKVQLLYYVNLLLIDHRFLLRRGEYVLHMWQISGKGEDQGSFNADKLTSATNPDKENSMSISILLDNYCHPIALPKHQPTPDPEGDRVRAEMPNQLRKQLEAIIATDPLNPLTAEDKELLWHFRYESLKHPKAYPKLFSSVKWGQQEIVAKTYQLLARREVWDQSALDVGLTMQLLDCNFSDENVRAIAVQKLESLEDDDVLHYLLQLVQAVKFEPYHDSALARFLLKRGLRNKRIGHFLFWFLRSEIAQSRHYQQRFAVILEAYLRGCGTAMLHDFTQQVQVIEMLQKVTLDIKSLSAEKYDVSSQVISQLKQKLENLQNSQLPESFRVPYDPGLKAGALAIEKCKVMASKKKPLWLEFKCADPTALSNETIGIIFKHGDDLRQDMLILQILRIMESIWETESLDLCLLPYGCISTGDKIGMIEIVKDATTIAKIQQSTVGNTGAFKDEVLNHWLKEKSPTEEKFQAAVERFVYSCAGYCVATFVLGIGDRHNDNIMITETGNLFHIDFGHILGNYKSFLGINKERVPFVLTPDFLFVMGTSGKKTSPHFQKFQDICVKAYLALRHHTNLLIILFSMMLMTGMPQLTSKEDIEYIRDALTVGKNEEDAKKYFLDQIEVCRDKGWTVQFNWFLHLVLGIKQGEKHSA
Chain of Phosphatidylinositol 4,5-bisphosphate 3-kinase catalytic subunit beta isoform (P42338 whole entry, canonical isoform): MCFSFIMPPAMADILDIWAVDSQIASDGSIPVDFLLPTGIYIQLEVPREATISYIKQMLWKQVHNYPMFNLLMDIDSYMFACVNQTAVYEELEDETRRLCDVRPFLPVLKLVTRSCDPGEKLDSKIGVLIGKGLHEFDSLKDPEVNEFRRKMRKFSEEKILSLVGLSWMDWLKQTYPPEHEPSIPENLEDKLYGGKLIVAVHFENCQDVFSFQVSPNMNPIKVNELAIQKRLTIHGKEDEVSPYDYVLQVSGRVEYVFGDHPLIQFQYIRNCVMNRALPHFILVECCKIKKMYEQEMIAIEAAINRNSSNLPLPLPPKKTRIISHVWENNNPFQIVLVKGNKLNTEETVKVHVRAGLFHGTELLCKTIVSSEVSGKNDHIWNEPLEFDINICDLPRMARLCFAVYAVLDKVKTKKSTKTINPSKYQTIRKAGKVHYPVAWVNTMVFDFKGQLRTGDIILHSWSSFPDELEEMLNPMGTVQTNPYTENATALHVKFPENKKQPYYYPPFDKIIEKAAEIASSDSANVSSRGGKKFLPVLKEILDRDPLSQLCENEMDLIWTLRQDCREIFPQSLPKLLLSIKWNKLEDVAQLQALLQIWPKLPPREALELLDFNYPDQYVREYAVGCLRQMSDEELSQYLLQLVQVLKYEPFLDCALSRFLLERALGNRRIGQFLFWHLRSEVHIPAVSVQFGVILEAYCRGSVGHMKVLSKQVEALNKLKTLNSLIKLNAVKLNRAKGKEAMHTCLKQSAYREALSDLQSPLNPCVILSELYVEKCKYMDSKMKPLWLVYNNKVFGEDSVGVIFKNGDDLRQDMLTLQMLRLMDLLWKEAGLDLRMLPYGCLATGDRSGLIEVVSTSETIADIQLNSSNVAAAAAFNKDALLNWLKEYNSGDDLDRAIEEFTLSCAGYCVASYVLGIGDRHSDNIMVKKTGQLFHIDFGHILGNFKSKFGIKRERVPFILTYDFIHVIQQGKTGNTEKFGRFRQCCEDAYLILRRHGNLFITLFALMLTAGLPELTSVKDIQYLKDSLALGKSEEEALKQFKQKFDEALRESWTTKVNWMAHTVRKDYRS
Chain of Phosphatidylinositol 4,5-bisphosphate 3-kinase catalytic subunit alpha isoform (P42336 whole entry, canonical isoform): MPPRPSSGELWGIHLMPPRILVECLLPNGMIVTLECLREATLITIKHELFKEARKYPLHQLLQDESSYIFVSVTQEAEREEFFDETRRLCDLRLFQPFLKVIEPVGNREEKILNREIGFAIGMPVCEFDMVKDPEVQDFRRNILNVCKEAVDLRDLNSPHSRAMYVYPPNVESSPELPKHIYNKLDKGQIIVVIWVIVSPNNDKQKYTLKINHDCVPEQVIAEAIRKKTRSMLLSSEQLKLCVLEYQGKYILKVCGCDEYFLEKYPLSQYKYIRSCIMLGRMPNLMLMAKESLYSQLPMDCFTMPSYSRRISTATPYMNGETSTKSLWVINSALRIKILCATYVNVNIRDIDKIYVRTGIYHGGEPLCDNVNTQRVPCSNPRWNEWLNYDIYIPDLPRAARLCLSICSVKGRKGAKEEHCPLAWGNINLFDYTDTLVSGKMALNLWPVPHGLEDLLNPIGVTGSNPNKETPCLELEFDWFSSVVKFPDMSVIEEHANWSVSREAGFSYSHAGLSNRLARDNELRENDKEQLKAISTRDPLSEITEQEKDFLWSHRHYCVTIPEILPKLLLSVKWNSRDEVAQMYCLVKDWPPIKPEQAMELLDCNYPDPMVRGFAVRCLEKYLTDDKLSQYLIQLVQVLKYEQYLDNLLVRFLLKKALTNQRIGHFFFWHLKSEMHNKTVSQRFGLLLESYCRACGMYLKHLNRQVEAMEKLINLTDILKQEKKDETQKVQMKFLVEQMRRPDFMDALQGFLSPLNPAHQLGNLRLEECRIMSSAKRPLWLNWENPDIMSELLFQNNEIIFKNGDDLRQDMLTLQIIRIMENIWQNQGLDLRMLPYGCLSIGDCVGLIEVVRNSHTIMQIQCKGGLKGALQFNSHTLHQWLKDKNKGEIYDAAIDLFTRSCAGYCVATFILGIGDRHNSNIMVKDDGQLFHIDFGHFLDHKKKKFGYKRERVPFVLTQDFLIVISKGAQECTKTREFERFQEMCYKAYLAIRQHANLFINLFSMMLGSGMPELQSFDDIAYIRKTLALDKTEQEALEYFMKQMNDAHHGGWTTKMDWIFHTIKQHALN

Nc1nsc2ccc(-c3ccc4nccc(-c5ccncc5)c4c3)cc12 [US11547697, Compound 12]
> 10 µM: all assays above

CC(=O)Nc1cn2cc(-c3ccc4nccc(-c5ccncc5)c4c3)ccc2n1 [US11547697, Compound 19]
> 10 µM: all assays above

Nc1nc2cc(-c3cnc4ncc(-c5ccncc5)n4c3)ccc2o1 [US11547697, Compound 61]
> 10 µM: all assays above

Cc1nc2ccc(-c3ccc4oc(N)nc4c3)cn2c1C(=O)N1CCN(C)CC1 [US11547697, Compound 91]
> 10 µM: all assays above

Cc1nc2ccc(-c3ccc4oc(N)nc4c3)cn2c1C(=O)N1CCOCC1 [US11547697, Compound 92]
> 10 µM: all assays above

Nc1nc2cc(-c3cn4c(C(=O)N5CCOCC5)cnc4cn3)ccc2o1 [US11547697, Compound 122]
> 10 µM: all assays above

CC(=O)Nc1nc2ccc(-c3nc(N4CCOCC4)c4sc(CN5CCN(S(C)(=O)=O)CC5)cc4n3)cc2s1 [US11547697, Compound 130]
> 10 µM: all assays above

Nc1ncc(-c2ccc3oc(N)nc3c2)cn1 [US11547697, Compound 233]
> 10 µM: [1] | [2] | [3]

Nc1nc2cc(-c3cccc4[nH]nc(N)c34)ccc2o1 [US11547697, Compound 236]
> 10 µM: [1] | [2] | [4]

CC(=O)Nc1nc2cc(-c3ccc4oc(N)nc4c3)ccc2o1 [US11547697, Compound 244]
> 10 µM: all assays above

Nc1nc2ccc(-c3ccc4nc(N)oc4c3)cc2o1 [US11547697, Compound 246]
> 10 µM: all assays above

Nc1cn2cc(-c3ccc4nc(N)oc4c3)ccc2n1 [US11547697, Compound 247]
> 10 µM: [1] | [3]

CC(=O)Nc1nc2cc(-c3ccc4oc(N)nc4c3)ccc2s1 [US11547697, Compound 250]
> 10 µM: [1] | [2] | [3]

Nc1nc2cc(-c3ccc4nnc(C(=O)N5CCOCC5)n4c3)ccc2o1 [US11547697, Compound 282]
> 10 µM: all assays above

C[C@H]1CN(c2cnc3ccc(-c4cccc5nc(N)oc45)cc3n2)CCN1 [US11547697, Compound 310]
> 10 µM: all assays above

Nc1nc2cc(-c3ccc4ncn(C(=O)N5CCOCC5)c4c3)ccc2o1 [US11547697, Compound 317]
> 10 µM: all assays above

C[C@H]1CN(c2cnc3cccc(-c4ccc5nc(N)oc5c4)c3n2)CCN1 [US11547697, Compound 343]
> 10 µM: [1] | [3] | [4]

O=C(c1cnc2ccc(-c3ccc4oc(Nc5ccccc5)nc4c3)cn12)N1CCOCC1 [US11547697, Compound 407]
> 10 µM: [1] | [3] | [4]

O=C(c1cnc2ccc(-c3ccc4oc(NC5CC5)nc4c3)cn12)N1CCOCC1 [US11547697, Compound 409]
> 10 µM: [2] | [3] | [4]

Nc1ncc(-c2ccc3ncc(C(=O)N4CCOCC4)n3c2)cc1C(F)(F)F [US11547697, Compound 410]
> 10 µM: [2] | [3] | [4]

Nc1nc2nc(-c3ccc4ncc(C(=O)N5CCOCC5)n4c3)ccc2o1 [US11547697, Compound 412]
> 10 µM: [2] | [3] | [4]

COc1ncc(-c2ccc3ncc(C(=O)N4CCOCC4)n3c2)cc1N [US11547697, Compound 414]
> 10 µM: [2] | [3] | [4]

Nc1cc(-c2ccc3ncc(C(=O)N4CCOCC4)n3c2)cnc1Cl [US11547697, Compound 415]
> 10 µM: [2] | [3] | [4]

Nc1nc2cc(-c3cc(F)c4ncc(C(=O)N5CCOCC5)n4c3)ccc2o1 [US11547697, Compound 438]
> 10 µM: [2] | [3] | [4]

Nc1nc2ccc(-c3cc(F)c4ncc(C(=O)N5CCOCC5)n4c3)cc2o1 [US11547697, Compound 439]
> 10 µM: [2] | [3] | [4]

COc1ccc(-c2ccc3ncc(C(=O)N4CCOCC4)n3c2)cc1S(=O)(=O)Nc1ccccc1 [US11547697, Compound 444]
> 10 µM: [2] | [3] | [4]

CN1CCN(n2cnc3ccc(-c4ccc5oc(N)nc5c4)cc3c2=O)CC1 [US11547697, Compound 446]
> 10 µM: [2] | [3] | [4]

O=C(c1cnc2ccc(-c3cncc(S(=O)(=O)Nc4ccccc4)c3)cn12)N1CCOCC1 [US11547697, Compound 447]
> 10 µM: [2] | [3] | [4]

CNS(=O)(=O)c1cncc(-c2ccc3ncc(C(=O)N4CCOCC4)n3c2)c1 [US11547697, Compound 450]
> 10 µM: [2] | [3] | [4]

CS(=O)(=O)Nc1cc(-c2ccc3ncc(C(=O)N4CCOCC4)n3c2)ccc1Cl [US11547697, Compound 460]
> 10 µM: [2] | [3] | [4]

Nc1nsc2c(-c3ccc4ncc(C(=O)N5CCOCC5)n4c3)cccc12 [US11547697, Compound 474]
> 10 µM: [2] | [3] | [4]

Nc1nc2cccc(-c3ccc4ncc(C(=O)N5CCOCC5)n4c3)c2s1 [US11547697, Compound 485]
> 10 µM: [2] | [3] | [4]

Nc1nsc2cc(-c3ccc4ncc(C(=O)N5CCOCC5)n4c3)ccc12 [US11547697, Compound 489]
> 10 µM: [2] | [3] | [4]

CC1(C)COCCN1C(=O)c1cnc2ccc(-c3ccc4oc(N)nc4c3)cn12 [US11547697, Compound 514]
> 10 µM: [2] | [3] | [4]

O=C(c1cnc2ccc(-c3cnc(Cl)c4[nH]ncc34)cn12)N1CCOCC1 [US11547697, Compound 516]
> 10 µM: [2] | [3] | [4]
